Results taken from US20260193295A1, “CILAGICIN COMPOUNDS AND METHODS OF USE THEREOF” (priority 2022, published 2026).
Converted amounts (≈) assume the structure as drawn. Positions of bridges follow the written chain, without caps; N, C: chain ends. Non-standard residues stand in square brackets, D forms with d. Residues, ends and D or L forms follow the SMILES beside them. *: point of attachment. Myristoyl = CCCCCCCCCCCCCC(=O)*; dDab = NCC[C@@H](N)C(=O)O; Dab = NCC[C@H](N)C(=O)O

What was measured:
[1] = tested on: S. aureus USA300; test: Cell lysis assay (SYTOX green); type: cell-based, Staphylococcus aureus; conditions: S. aureus exposed to 8-fold MIC
Experimental: Cell lytic activity of cilagicin was evaluated using SYTOX green nucleic acid stain (Thermo Fisher, USA). Gramicidin and DMSO were used as positive and negative controls, respectively. S. aureus USA300 was grown overnight at 37° C. with shaking (200 rpm) and then diluted in fresh LB broth to an OD600nm of 0.35. 900 μL of this S. aureus USA300 suspension was mixed with 100 μL of SYTOX (17 μM in DMSO). The mixture was incubated at room temperature for 5 minutes, and then transferred into a 384-well flat bottom black microtiter plate (30 μL/well). The initial fluorescence intensity of each well was recorded using an infinite 200 PRO (Excitation/Emission=488/523 nm) at 9 second intervals for 5 minutes. […] The fluorescence intensity of each well was then continually monitored at 9 second intervals for 25 minutes and plotted by Prism 9.0. All assays were performed in biological triplicates (n=3).

[2] = tested on: S. aureus USA300; type: cell-based, Staphylococcus aureus
Experimental: The effect of lipid II biosynthesis intermediates on cilagicin's antibacterial activity was evaluated using S. aureus USA300 and the general MIC assay methods described above with the following changes. Potential antagonizing compounds were mixed with cilagicin at a constant molar ratio of 5. Cilagicin mixed with solvent alone was used as a control. Premixed solutions were dried in vacuo for 2 hours to completely remove all organic solvent. They were then resuspended in LB broth and mixed with S. aureus. All assays were run in duplicate (n=2) and repeated two independent times (n=2).

[3] = tested on: Streptococcus pneumoniae; type: cell-based
Experimental: (§1) MIC assay were conducted using the protocol recommended by the Clinical and Laboratory Standards Institute.(37) Culture conditions (temperature, medium) are detailed in Table 3. All compounds were dissolved in sterile DMSO (ATCC, USA) to give a concentration of 6.4 mg/mL. Vancomycin hydrochloride was used as positive controls. Tested compounds were serially diluted across 96-well plates using a 2-fold serial dilution in a volume of 50 μL. An overnight culture of an assay strain was diluted 5,000-fold in fresh medium. 50 μL of this dilution was added into each well, giving a final volume of 100 μL in each well. Compounds were assayed at concentrations ranging from 64 μg/mL to 0.06 μg/mL. The top and bottom rows of each plate were filled with 100 μL of media to avoid edge effects. […] For Clostridium difficile plates were statically incubated under anaerobic conditions (Vinyl anaerobic chamber, 37° C., 5% H2, 5% CO2, 90% N2). For Streptococcus pneumoniae plates were statically incubated under aerobic conditions supplemented with 5% C02 (37° C.). All MICs were performed in technical duplicate (n=2) and repeated three independent times (n=3).

[4] = tested on: Enterococcus gallinarum; type: cell-based
Experimental: as §1

[5] = tested on: Staphylococcus aureus; type: cell-based; conditions: S. aureus, presence versus absence of serum (10% serum)
Experimental: as §1

[6] = tested on: Pseudomonas aeruginosa; type: cell-based
Experimental: as §1

[7] = tested on: Streptococcus pyrogens; type: cell-based
Experimental: as §1

[8] = tested on: Enterococcus faecium; type: cell-based
Experimental: as §1

[9] = tested on: Bacillus subtilis; type: cell-based
Experimental: as §1

[10] = tested on: Streptococcus agalactiae; type: cell-based
Experimental: as §1

[11] = tested on: Gram-positive pathogens; type: cell-based
Experimental: as §1

[12] = tested on: Enterococcus casseliflavus; type: cell-based
Experimental: as §1

[13] = tested on: Acinetobacter baumannii; type: cell-based
Experimental: as §1

[14] = tested on: Klebsiella pneumoniae; type: cell-based
Experimental: as §1

[15] = tested on: Enterococcus faecalis; type: cell-based
Experimental: as §1

[16] = tested on: Enterobacter cloacae; type: cell-based
Experimental: as §1

[17] = tested on: S. aureus USA300; test: Time-dependent killing assay; type: cell-based, Staphylococcus aureus; conditions: S. aureus USA300, 10x the MIC
Experimental: An overnight culture of S. aureus USA300 was diluted 1:10,000 in 50 mL fresh LB and incubated at 37° C. with aeration at 220 rpm for 2 hours. Bacteria (3 mL) were challenged with 10× the MIC of each antibiotic (10 μg/mL cilagicin, 10 μg/mL vancomycin). After 1.25, 4, 8, 16 and 24 hours 200 μL aliquots of cells were collected, centrifuged at 10,000×g for 1 minute and then resuspended in 200 μL of sterile PBS (pH 7.4). 50 μL aliquots of 10-fold serial dilutions were plated on LB agar plates. After overnight growth at 37° C., colonies were counted. Experiments were performed three independent times (n=3).

Compound: CCCCCCCCCCCCCC(=O)N[C@H](CO)C(=O)N[C@@H]1C(=O)N[C@H](CCN)C(=O)N[C@@H](CC(=O)O)C(=O)NCC(=O)N[C@H](CC(N)=O)C(=O)N[C@H](CC(=O)O)C(=O)NCC(=O)N[C@@H](Cc2ccc(O)cc2)C(=O)N[C@@H](C(C)C)C(=O)N[C@@H](CCN)C(=O)N[C@@H](Cc2ccccc2)C(=O)O[C@@H]1C [Cilagicin] (Myristoyl-[dS]T[dDab]DG[dN][dD]GYV[Dab]F; ester 2-C)
- cell lytic activity (SYTOX fluorescence) [1]: No response was detected
- molar ratio at which C55-P completely inhibited the bioactivity ([2]; S. aureus USA300, C55-P): ~ 1.25
- molar ratio at which C55-PP gave complete inhibition ([2]; S. aureus USA300, C55-PP): ~ 2.5
- MIC in the presence of C55-P ([2]; USA300): ≥ 64 µg/mL
- MIC [3]: 0.25 µg/mL (≈ 0.17 µM)
- Cilagicin MIC [4]: 0.5 µg/mL
- antibacterial activity (MIC) in the presence of serum [5]: significantly suppressed
- Cilagicin MIC [6]: >64 µg/mL
- Cilagicin MIC [7]: 0.125 µg/mL
- MIC [7]: 0.125 µg/mL (≈ 0.0852 µM)
- Cilagicin MIC [8]: 0.5 µg/mL
- MIC [8]: 0.5 µg/mL (≈ 0.341 µM)
- Cilagicin MIC [9]: 2 µg/mL
- Cilagicin MIC [10]: 1 µg/mL
- MIC [10]: 1 µg/mL (≈ 0.682 µM)
- MIC [11]: 1 µg/mL (≈ 0.682 µM)
- MICs [11]: ≤ 0.25 µg/mL
- minimum inhibitory concentrations (MIC) [11]: 0.125 to 2 µg/mL
- Cilagicin MIC [12]: 0.125 µg/mL
- Cilagicin MIC [13]: 8 µg/mL
- MIC ([13]; A. baumannii (Table 5)): 8 µg/mL (≈ 5.45 µM)
- Cilagicin MIC [14]: >64 µg/mL
- Cilagicin MIC [15]: 0.5 µg/mL
- Cilagicin MIC [16]: >64 µg/mL
- time-dependent killing curve analysis, kind of action [17]: bactericidal
- reduction of the number of viable bacteria ([17]; after 4 hours): more than four orders of magnitude
